Literature values in PMC8147660 (The Prostate, 2018).

How the values were obtained:
[1] = cleared via A2M-receptor/LRP in the liver
PSA = conditions: read-out: PSA Ki; described in previous studies
chymotrypsin = conditions: read-out: Ki for chymotrypsin; described in previous studies

Substance | Plasma half-life of the complex [1] | Ki (PSA) [nM] | Ki (chymotrypsin) [nM]
PSA-A2M: PSA complexed with the serum protease inhibitor alpha-2-macroglobulin | a few minutes | – | –
Ahx-FSQn(boro)Bpg | – | 72 | 580
